Laboratory results as given in patent US10226451B2, “Substituted bicyclic compounds as bromodomain inhibitors” (ZENITH EPIGENETICS LTD, priority 2013, dated 2019).

Experiments:
[1] = target: T1, Brd4 bromodomain 1 (BRD4(1)) (Homo sapiens, UniProt O60885); assay: Inhibition of tetra-acetylated histone H4 binding to Brd4 bromodomain 1 (HTRF/FRET); conditions: tetra-acetylated histone H4 peptide, His-tagged bromodomain 200 nM, 2 h
T1 construct: made in house; host or cells: E. coli BL21(DE3)
Procedure: Proteins were cloned and overexpressed with a N-terminal 6×His tag, then purified by nickel affinity followed by size exclusion chromatography. Briefly, E. coli BL21(DE3) cells were transformed with a recombinant expression vector encoding N-terminally Nickel affinity tagged bromodomains from Brd2, Brd3, Brd4. Cell cultures were incubated at 37° C. with shaking to the appropriate density and induced overnight with IPTG. The supernatant of lysed cells was loaded onto Ni-IDA column for purification. Eluted protein was pooled, concentrated and further purified by size exclusion chromatography. Fractions representing monomeric protein were pooled, concentrated, aliquoted, and frozen at −80° C. for use in subsequent experiments.
Binding of tetra-acetylated histone H4 and BET bromodomains was confirmed by a Homogenous Time Resolved Fluorescence Resonance Energy Transfer (HTRF®) method. N-terminally His-tagged bromodomains (200 nM) and biotinylated tetra-acetylated histone H4 peptide (25-50 nM, Millipore) were incubated in the presence of Europium Cryptate-labeled streptavidin (Cisbio Cat. #610SAKLB) and XL665-labeled monoclonal anti-His antibody (Cisbio Cat. #61HISXLB) in a white 96 well microtiter plate (Greiner). For inhibition assays, serially diluted test compound was added to these reactions in a 0.2% final concentration of DMSO. Duplicate wells were used for each concentration tested. Final buffer concentrations were 30 mM HEPES pH 7.4, 30 mM NaCl, 0.3 mM CHAPS, 20 mM phosphate pH 7.0, 320 mM KF, 0.08% BSA. After a 2 h incubation at room temperature, fluorescence was measured at 665 and 620 nm with a SynergyH4 plate reader (Biotek). The binding inhibitory activity was shown by a decrease in 665 nm relative to 620 nm fluorescence. IC50 values were determined from a dose response curve.

[2] = system: c-myc in Human AML MV4-11 cells; assay: Inhibition of c-MYC expression (mRNA, real-time PCR) in MV4-11 cells; format: cell-based; conditions: 3 h, mRNA by real-time PCR
Procedure: MV4-11 cells (CRL-9591) were plated at a density of 2.5×10^4 cells per well in 96 well U-bottom plates and treated with increasing concentrations of test compound or DMSO (0.1%) in IMDM media containing 10% FBS and penicillin/streptomycin, and incubated for 3 h at 37° C. Triplicate wells were used for each concentration. Cells were pelleted by centrifugation and harvested using the mRNA Catcher PLUS kit according to manufacturer's instructions. The eluted mRNA isolated was then used in a one-step quantitative real-time PCR reaction, using components of the RNA UltraSense™ One-Step Kit (Life Technologies) together with Applied Biosystems TaqMan® primer-probes for cMYC and Cyclophilin. Real-time PCR plates were run on a ViiA™7 real time PCR machine (Applied Biosystems), data was analyzed, normalizing the Ct values for hMYC to an internal control, prior to determining the fold expression of each sample, relative to the control.

Human AML MV-4-11 cells = assay: Inhibition of cell proliferation in MV4-11 cells (CellTiter Aqueous One); format: cell-based; conditions: 72 h
Procedure: In this example, cell titer in MV4-11 cells were quantitated to measure the inhibition of proliferation when treated with a compound of the present disclosure.
MV4-11 cells (CRL-9591) were plated at a density of 5×10^4 cells per well in 96 well flat bottom plates and treated with increasing concentrations of test compound or DMSO (0.1%) in IMDM media containing 10% FBS and penicillin/streptomycin. Triplicate wells were used for each concentration and a well containing only media was used as a control. Plates were incubated at 37° C., 5% CO2 for 72 h before adding 20 μL of the CellTiter Aqueous One Solution (Promega) to each well and incubated at 37° C., 5% CO2 for an additional 3-4 h. The absorbance was read at 490 nm in a spectrophotometer and the percentage of cell titer relative to DMSO-treated cells was calculated after correcting for background by subtracting the blank well's signal. IC50 values were calculated using the Graph Pad Prism software.

hIL-6 mRNA in U937 cells = assay: Inhibition of hIL-6 mRNA transcription in LPS-stimulated U937 cells; format: cell-based; conditions: Homo sapiens, U-937, PMA-differentiated U937 cells, LPS 1 ug/mL, 3 h, read-out: IL-6 activity
Procedure: In this example, hIL-6 mRNA in tissue culture cells were quantitated to measure the transcriptional inhibition of hIL-6 when treated with a compound of the present disclosure.
Human leukemic monocyte lymphoma U937 cells (CRL-1593.2) were plated at a density of 3.2×10^4 cells per well in a 96-well plate in 100 μL RPMI-1640 containing 10% FBS and penicillin/streptomycin, and differentiated into macrophages for 3 days in 60 ng/mL PMA ([…]) at 37° C. in 5% CO2 prior to the addition of compound. The cells were pretreated for 1 h with increasing concentrations of test compound in 0.1% DMSO prior to stimulation with 1 ug/mL lipopolysaccharide from Escherichia coli. Triplicate wells were used for each concentration. The cells were incubated at 37° C., 5% CO2 for 3 h before the cells were harvested. At time of harvest, media was removed and cells were rinsed in 200 μL PBS. Cells were harvested using the mRNA Catcher PLUS kit according to manufacturer's instructions. The eluted mRNA was then used in a one-step quantitative real-time PCR reaction using components of the RNA UltraSense™ One-Step Kit (Life Technologies) together with Applied Biosystems TaqMan® primer-probes for hIL-6 and Cyclophilin. Real-time PCR plates were run on a ViiA™7 real time PCR machine (Applied Biosystems), data was analyzed, normalizing the Ct values for hIL-6 to an internal control, prior to determining the fold expression of each sample, relative to the control.

[3] = system: hIL-17 mRNA in human peripheral blood mononuclear cells; assay: Inhibition of hIL-17 mRNA transcription in OKT3-stimulated PBMC; format: cell-based; conditions: OKT3 antibody, 6 h, read-out: IL-17 activity
Procedure: In this example, hIL-17 mRNA in human peripheral blood mononuclear cells were quantitated to measure the transcriptional inhibition of hIL-17 when treated with a compound of the present disclosure.
Human peripheral blood mononuclear cells were plated (2.0×10^5 cells per well) in a 96-well plate in 45 μL OpTimizer T Cell expansion media (Life Technologies) containing 20 ng/ml IL-2 and penicillin/streptomycin. The cells were treated with increasing concentrations of the test compound or DMSO (0.1%), and incubated at 37° C., 5% CO2 for 1 h before addition of 10× stock OKT3 antibody at 10 ug/ml in media. Triplicate wells were used for each concentration. Cells were incubated at 37° C., 5% CO2 for 6 h before the cells were harvested. At time of harvest, cells were pelleted by centrifugation at 800 rpm for 5 min. Cells were harvested using the mRNA Catcher PLUS kit according to manufacturer's instructions. The eluted mRNA was then used in a one-step quantitative real-time PCR reaction, using components of the RNA UltraSense™ One-Step Kit (Life Technologies) together with Applied Biosystems TaqMan® primer-probes for hIL-17 and Cyclophilin. Real-time PCR plates were run on a ViiA™7 real time PCR machine (Applied Biosystems), data was analyzed, normalizing the Ct values for hIL-17 to an internal control, prior to determining the fold induction of each unknown sample, relative to the control.

[4] = system: hApoA-I mRNA in Huh7 cells; assay: Up-regulation of hApoA-1 mRNA transcription in Huh7 cells; format: cell-based, Human; conditions: EC170, Huh7 cells, 48 h
Procedure: In this example, hApoA-I mRNA in tissue culture cells was quantitated to measure the transcriptional up-regulation of hApoA-I when treated with a compound of the present disclosure.
Huh7 cells (2.5×10^5 per well) were plated in a 96-well plate using 100 μL DMEM per well, (Gibco DMEM supplemented with penicillin/streptomycin and 10% FBS), 72 h before the addition of the compound. The cells are treated with increasing concentrations of the compound or DMSO (0.1%), and incubated at 37° C., 5% CO2 for 48 h. Spent media was removed from the Huh-7 cells and placed on ice for immediate use with the “LDH cytotoxicity assay Kit II” from Abcam. The cells remaining in the plate were rinsed with 100 μL PBS. Cells were harvested using the mRNA Catcher PLUS kit according to manufacturer's instructions. The eluted mRNA was then used in a one-step quantitative real-time PCR reaction, using components of the RNA UltraSense™ One-Step Kit (Life Technologies) together with Applied Biosystems TaqMan® primer-probes for hApoA-I and Cyclophilin. Real-time PCR plates were run on a ViiA™7 real time PCR machine (Applied Biosystems), data was analyzed, normalizing the Ct values for hApoA-1 to an internal control, prior to determining the fold induction of each unknown sample, relative to the control.

IC50 [1] [nM] | IC50 [2] [nM] | IC50 (Human AML MV-4-11 cells) [nM] | IC50 (hIL-6 mRNA in U937 cells) [nM] | IC50 [3] [nM] | Compound | ApoA-1 activity [4]
≤ 300 | ≤ 300 | 300 to 3000 | ≤ 300 | 300 to 3000 | Cc1ncccc1-c1cc(-c2c(C)noc2C)cc2[nH]c(=O)n(C)c12 [Example Compound 4, 5-(3,5-dimethylisoxazol-4-yl)-1-methyl-7-(2-methylpyridin-3-yl)-1H-benzo[d]imidazol-2(3H)-one] | +++ (EC170 value less than or equal to 0.3 μM were deemed to be highly active (+++))
300 to 3000 | 300 to 3000 | 300 to 3000 | 300 to 3000 | ≤ 300 | Cc1noc(C)c1-c1cc(-c2ccc(F)cc2C(F)(F)F)c2c(c1)[nH]c(=O)n2C [Example Compound 11, 5-(3,5-dimethylisoxazol-4-yl)-7-(4-fluoro-2-(trifluoromethyl)phenyl)-1-methyl-1H-benzo[d]imidazol-2(3H)-one] | –
≤ 300 | 300 to 3000 | 300 to 3000 | ≤ 300 | ≤ 300 | COc1ccc(F)cc1-c1cc(-c2c(C)noc2C)cc2[nH]c(=O)n(C)c12 [Example Compound 18, 5-(3,5-dimethylisoxazol-4-yl)-7-(5-fluoro-2-methoxyphenyl)-1-methyl-1H-benzo[d]imidazol-2(3H)-one] | –
≤ 300 | 300 to 3000 | ≤ 300 | ≤ 300 | 300 to 3000 | Cc1nc(N)ccc1-c1cc(-c2c(C)noc2C)cc2[nH]c(=O)n(C)c12 [Example Compound 20, 7-(6-amino-2-methylpyridin-3-yl)-5-(3,5-dimethylisoxazol-4-yl)-1-methyl-1H-benzo[d]imidazol-2(3H)-one] | –
≤ 300 | ≤ 300 | ≤ 300 | ≤ 300 | ≤ 300 | Cc1noc(C)c1-c1cc(-c2cccc(C(N)=O)c2C)c2c(c1)[nH]c(=O)n2C [Example Compound 30, 3-(6-(3,5-dimethylisoxazol-4-yl)-3-methyl-2-oxo-2,3-dihydro-1H-benzo[d]imidazol-4-yl)-2-methylbenzamide] | –

Further lines, the compound ahead of its results:

Compound | IC50 [1] [nM] | IC50 [2] [nM] | IC50 (Human AML MV-4-11 cells) [nM] | IC50 (hIL-6 mRNA in U937 cells) [nM] | IC50 [3] [nM] | ApoA-1 activity [4]
Cc1noc(C)c1-c1cc(-c2c(C)noc2C)c2[nH]c(=O)[nH]c2c1 [Example Compound 1, 4,6-bis(3,5-dimethylisoxazol-4-yl)-1H-benzo[d]imidazol-2(3H)-one] | ≤ 300 | 300 to 3000 | ≤ 300 | ≤ 300 | ≤ 300 | +++ (EC170 value less than or equal to 0.3 μM were deemed to be highly active (+++))
Cc1cnsc1-c1cc(-c2c(C)noc2C)cc2[nH]c(=O)n(C)c12 [Example Compound 10, 5-(3,5-dimethylisoxazol-4-yl)-1-methyl-7-(4-methylisothiazol-5-yl)-1H-benzo[d]imidazol-2(3H)-one] | ≤ 300 | ≤ 300 | ≤ 300 | ≤ 300 | ≤ 300 | –
Cc1n[nH]c(C)c1-c1cc(-c2c(C)noc2C)cc2[nH]c(=O)n(C)c12 [Example Compound 21, 7-(3,5-dimethyl-1H-pyrazol-4-yl)-5-(3,5-dimethylisoxazol-4-yl)-1-methyl-1H-benzo[d]imidazol-2(3H)-one] | ≤ 300 | ≤ 300 | ≤ 300 | ≤ 300 | ≤ 300 | –
Cc1noc(C)c1-c1cc(-c2c(C)nn(C)c2C)c2[nH]c(=O)[nH]c2c1 [Example Compound 22, 6-(3,5-dimethylisoxazol-4-yl)-4-(1,3,5-trimethyl-1H-pyrazol-4-yl)-1H-benzo[d]imidazol-2(3H)-one] | ≤ 300 | ≤ 300 | ≤ 300 | ≤ 300 | ≤ 300 | –
Cc1noc(CO)c1-c1cc(-c2c(C)nn(C)c2C)c2c(c1)[nH]c(=O)n2C [Example Compound 28, 5-(5-(hydroxymethyl)-3-methylisoxazol-4-yl)-1-methyl-7-(1,3,5-trimethyl-1H-pyrazol-4-yl)-1H-benzo[d]imidazol-2(3H)-one] | ≤ 300 | 300 to 3000 | 300 to 3000 | 300 to 3000 | 300 to 3000 | –
